According to patent publication US7879347B2, “Dihydroxyphenyl compounds and glucoside compounds thereof” (KAO Corporation, priority 2001, dated 2011):

Columns and labels:
[1] = Anti-oxidation test (UV-induced peroxide formation); design: unit not given here; conditions: 0.005 g compound in 1 ml methyl linolate
Source text: Comparative test on raspberry ketone was made in the same manner as above.

[2] = test system: Free fatty cells from epididymis fatty tissues; experiment: Determination of lypolytic activity in free fatty cells; type: cell-based, Wister male rats; conditions: for degree of lypolysis promotion (%): 100 μg/ml test compound, 0.05 μg/ml norepinephrine, 37° C., 1 hour, fatty acids relative to control solution without compound (=100)
Procedure: The cells were added to a Hank's balanced solution containing 0.05 μg/ml of bovine serum albumin, 0.05 μg/ml of norepinephrine and 100 μg/ml of the present compound to be tested, and then allowed to react at 37° C. for 1 hour. Liberated fatty acids were extracted and quantitated with a copper reagent and a color developing reagent. Lypolytic activity was calculated according to the following equation. Lypolytic activity(%)=[A/B]×100, wherein A: amount of fatty acids in a sample solution, and B: that in a control solution without present compound. Subcutaneous Fat Decomposition Test

B16 melanoma cells = experiment: Melanogenesis inhibition test; type: cell-based; conditions: 72 hours; for Amount of melanin per cell (%): Theophylline containing medium, relative to blank
Procedure: B16 melanoma cells were inoculated in a 12 wells-plastic plate at a concentration of 2×10^4/well on MEM (Minimum Essential Medium). After 24 hours, the medium was changed to a Theophylline containing medium to which 4-(3′,4′-dihydroxyphenyl)-butane-2-one was added in the concentrations shown in Table 6. The cells were cultured for 72 hours and then treated with 10% TCA and ethanol/diethylether(=1/1). After counting the number of the cells, the cells were dissolved in an aqueous 1 mol/l sodium hydroxide solution containing dimethylsulfoxide in a concentration of 10%. Optical density at 475 nm (OD475) of the solution thus obtained was measured.

Structure (SMILES): CC(=O)CCc1ccc(O)cc1 [Raspberry ketone, reference compound]
- amount of peroxides formed by oxidation of methyl linolate ([1]; UVB 10 (J/cm^2)): 30.2
- amount of peroxides formed by oxidation of methyl linolate ([1]; UVB 30 (J/cm^2)): 42.5
- degree of lypolysis promotion (%) [2]: 142.0 +/− 6.8%

Structure (SMILES): CC(=O)CCc1ccc(O)c(O)c1 [4-(3′,4′-dihydroxyphenyl)-butane-2-one]
- amount of peroxides formed by oxidation of methyl linolate ([1]; UVB 10 (J/cm^2)): 1.6
- amount of peroxides formed by oxidation of methyl linolate ([1]; UVB 30 (J/cm^2)): 3.7
- Amount of melanin per cell (%) (B16 melanoma cells; concentration 1 μg/l): 94.7%
- Amount of melanin per cell (%) (B16 melanoma cells; concentration 3 μg/l): 77.2%
- Amount of melanin per cell (%) (B16 melanoma cells; concentration 10 μg/l): 62.7%
- Amount of melanin per cell (%) (B16 melanoma cells; concentration 30 μg/l): 2.2%
- numbers of the cells (B16 melanoma cells; concentration range of Table 6 (up to 30 μg/l)): no difference
- degree of lypolysis promotion (%) [2]: 194.3 +/− 12.4%
- lypolytic activity compared with raspberry ketone of Comparative Example 1 ([2]; comparison in words): significantly higher
